Source: US7118895B2, “Process for producing aglycon by using diglycosidase and flavor-improved food containing the aglycon and converting agent to be used in the process” (Amano Enzyme Inc., priority 2000, dated 2006)

Test system: Crude diglycosidase
Assay: Examination of pH in the conversion into isoflavone aglycons by diglycosidase using soybean materials
Type: biochemical, Penicillium multicolor IAM7153
Conditions: for Decomposition efficiency of glycitin family in roasted soy flour / Decomposition efficiency of glycitin family in soymilk: 55° C.
Outline: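 Suspensions of 50 mg roasted soy flour, soymilk, defatted soybean or concentrated soy protein were brought to pH 2 to 11 with HCl or NaOH and reacted at 55° C with crude diglycosidase (enzyme solution at 1.88 AU/mL, same pH). Ethanol-stopped samples at 0, 1, 3 and 6 h were analysed by HPLC.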

[1] = pH6.6, heat treatment of enzyme: no, reaction time 0 h
[2] = pH6.6, heat treatment of enzyme: no, reaction time 1 h
[3] = pH6.6, heat treatment of enzyme: no, reaction time 3 h
[4] = pH6.6, heat treatment of enzyme: no, reaction time 6 h
[5] = pH6.6, heat treatment of enzyme: yes, reaction time 6 h

- Decomposition efficiency of glycitin family in concentrated soybean protein (pH1.6, heat treatment of enzyme: no, reaction time 0 h): 0.4%
- Decomposition efficiency of glycitin family in concentrated soybean protein (pH1.6, heat treatment of enzyme: no, reaction time 1 h): 0.4%
- Decomposition efficiency of glycitin family in concentrated soybean protein (pH1.6, heat treatment of enzyme: no, reaction time 3 h): 0.4%
- Decomposition efficiency of glycitin family in concentrated soybean protein (pH1.6, heat treatment of enzyme: no, reaction time 6 h): 0.4%
- Decomposition efficiency of glycitin family in concentrated soybean protein (pH1.6, heat treatment of enzyme: yes, reaction time 6 h): 0.4%
- Decomposition efficiency of glycitin family in roasted soy flour (pH2, heat treatment of enzyme no, reaction time 0 h): not detected
- Decomposition efficiency of glycitin family in roasted soy flour (pH2, heat treatment of enzyme no, reaction time 1 h): not detected
- Decomposition efficiency of glycitin family in roasted soy flour (pH2, heat treatment of enzyme no, reaction time 3 h): not detected
- Decomposition efficiency of glycitin family in roasted soy flour (pH2, heat treatment of enzyme no, reaction time 6 h): not detected
- Decomposition efficiency of glycitin family in roasted soy flour (pH2, heat treatment of enzyme yes, reaction time 6 h): not detected
- Decomposition efficiency of glycitin family in soymilk (pH2.3, heat treatment of enzyme no, reaction time 0 h): 42.6
- Decomposition efficiency of glycitin family in soymilk (pH2.3, heat treatment of enzyme no, reaction time 1 h): 51.3
- Decomposition efficiency of glycitin family in soymilk (pH2.3, heat treatment of enzyme no, reaction time 3 h): 47.7
- Decomposition efficiency of glycitin family in soymilk (pH2.3, heat treatment of enzyme no, reaction time 6 h): 46.5
- Decomposition efficiency of glycitin family in soymilk (pH2.3, heat treatment of enzyme yes, reaction time 6 h): 41.3
- Decomposition efficiency of glycitin family in defatted soybean (pH2.6, heat treatment of enzyme: no, reaction time 0 h): 100.0%
- Decomposition efficiency of glycitin family in defatted soybean (pH2.6, heat treatment of enzyme: no, reaction time 1 h): 100.0%
- Decomposition efficiency of glycitin family in defatted soybean (pH2.6, heat treatment of enzyme: no, reaction time 3 h): 100.0%
- Decomposition efficiency of glycitin family in defatted soybean (pH2.6, heat treatment of enzyme: no, reaction time 6 h): 100.0%
- Decomposition efficiency of glycitin family in defatted soybean (pH2.6, heat treatment of enzyme: yes, reaction time 6 h): 100.0%
- Decomposition efficiency of glycitin family in concentrated soybean protein (pH2.7, heat treatment of enzyme: no, reaction time 0 h): 0.4%
- Decomposition efficiency of glycitin family in concentrated soybean protein (pH2.7, heat treatment of enzyme: no, reaction time 1 h): 0.5%
- Decomposition efficiency of glycitin family in concentrated soybean protein (pH2.7, heat treatment of enzyme: no, reaction time 3 h): 0.5%
- Decomposition efficiency of glycitin family in concentrated soybean protein (pH2.7, heat treatment of enzyme: no, reaction time 6 h): 0.5%
- Decomposition efficiency of glycitin family in concentrated soybean protein (pH2.7, heat treatment of enzyme: yes, reaction time 6 h): 0.4%
- Decomposition efficiency of glycitin family in roasted soy flour (pH3, heat treatment of enzyme no, reaction time 0 h): not detected
- Decomposition efficiency of glycitin family in roasted soy flour (pH3, heat treatment of enzyme no, reaction time 1 h): not detected
- Decomposition efficiency of glycitin family in roasted soy flour (pH3, heat treatment of enzyme no, reaction time 3 h): not detected
- Decomposition efficiency of glycitin family in roasted soy flour (pH3, heat treatment of enzyme no, reaction time 6 h): not detected
- Decomposition efficiency of glycitin family in roasted soy flour (pH3, heat treatment of enzyme yes, reaction time 6 h): not detected
- Decomposition efficiency of glycitin family in defatted soybean (pH3.4, heat treatment of enzyme: no, reaction time 0 h): 100.0%
- Decomposition efficiency of glycitin family in defatted soybean (pH3.4, heat treatment of enzyme: no, reaction time 1 h): 100.0%
- Decomposition efficiency of glycitin family in defatted soybean (pH3.4, heat treatment of enzyme: no, reaction time 3 h): 100.0%
- Decomposition efficiency of glycitin family in defatted soybean (pH3.4, heat treatment of enzyme: no, reaction time 6 h): 100.0%
- Decomposition efficiency of glycitin family in defatted soybean (pH3.4, heat treatment of enzyme: yes, reaction time 6 h): 100.0%
- Decomposition efficiency of glycitin family in soymilk (pH3.5, heat treatment of enzyme no, reaction time 0 h): 42.6
- Decomposition efficiency of glycitin family in soymilk (pH3.5, heat treatment of enzyme no, reaction time 1 h): 21.9
- Decomposition efficiency of glycitin family in soymilk (pH3.5, heat treatment of enzyme no, reaction time 3 h): not detected
- Decomposition efficiency of glycitin family in soymilk (pH3.5, heat treatment of enzyme no, reaction time 6 h): not detected
- Decomposition efficiency of glycitin family in soymilk (pH3.5, heat treatment of enzyme yes, reaction time 6 h): 38.2
- Decomposition efficiency of glycitin family in concentrated soybean protein (pH3.7, heat treatment of enzyme: no, reaction time 0 h): 0.4%
- Decomposition efficiency of glycitin family in concentrated soybean protein (pH3.7, heat treatment of enzyme: no, reaction time 1 h): 0.5%
- Decomposition efficiency of glycitin family in concentrated soybean protein (pH3.7, heat treatment of enzyme: no, reaction time 3 h): 0.4%
- Decomposition efficiency of glycitin family in concentrated soybean protein (pH3.7, heat treatment of enzyme: no, reaction time 6 h): 0.4%
- Decomposition efficiency of glycitin family in concentrated soybean protein (pH3.7, heat treatment of enzyme: yes, reaction time 6 h): 0.4%
- Decomposition efficiency of glycitin family in roasted soy flour (pH4, heat treatment of enzyme no, reaction time 0 h): not detected
- Decomposition efficiency of glycitin family in roasted soy flour (pH4, heat treatment of enzyme no, reaction time 1 h): not detected
- Decomposition efficiency of glycitin family in roasted soy flour (pH4, heat treatment of enzyme no, reaction time 3 h): not detected
- Decomposition efficiency of glycitin family in roasted soy flour (pH4, heat treatment of enzyme no, reaction time 6 h): not detected
- Decomposition efficiency of glycitin family in roasted soy flour (pH4, heat treatment of enzyme yes, reaction time 6 h): not detected
- Decomposition efficiency of glycitin family in soymilk (pH4.8, heat treatment of enzyme no, reaction time 0 h): 43.2
- Decomposition efficiency of glycitin family in soymilk (pH4.8, heat treatment of enzyme no, reaction time 1 h): 37.0
- Decomposition efficiency of glycitin family in soymilk (pH4.8, heat treatment of enzyme no, reaction time 3 h): 21.1
- Decomposition efficiency of glycitin family in soymilk (pH4.8, heat treatment of enzyme no, reaction time 6 h): 8.3
- Decomposition efficiency of glycitin family in soymilk (pH4.8, heat treatment of enzyme yes, reaction time 6 h): 39.2
- Decomposition efficiency of glycitin family in defatted soybean (pH4.8, heat treatment of enzyme: no, reaction time 0 h): 64.0%
- Decomposition efficiency of glycitin family in defatted soybean (pH4.8, heat treatment of enzyme: no, reaction time 1 h): 40.1%
- Decomposition efficiency of glycitin family in defatted soybean (pH4.8, heat treatment of enzyme: no, reaction time 3 h): 37.5%
- Decomposition efficiency of glycitin family in defatted soybean (pH4.8, heat treatment of enzyme: no, reaction time 6 h): 31.9%
- Decomposition efficiency of glycitin family in defatted soybean (pH4.8, heat treatment of enzyme: yes, reaction time 6 h): 56.2%
- Decomposition efficiency of glycitin family in roasted soy flour (pH5, heat treatment of enzyme no, reaction time 0 h): not detected
- Decomposition efficiency of glycitin family in roasted soy flour (pH5, heat treatment of enzyme no, reaction time 1 h): not detected
- Decomposition efficiency of glycitin family in roasted soy flour (pH5, heat treatment of enzyme no, reaction time 3 h): not detected
- Decomposition efficiency of glycitin family in roasted soy flour (pH5, heat treatment of enzyme no, reaction time 6 h): not detected
- Decomposition efficiency of glycitin family in roasted soy flour (pH5, heat treatment of enzyme yes, reaction time 6 h): not detected
- Decomposition efficiency of glycitin family in concentrated soybean protein (pH5.1, heat treatment of enzyme: no, reaction time 0 h): 0.4%
- Decomposition efficiency of glycitin family in concentrated soybean protein (pH5.1, heat treatment of enzyme: no, reaction time 1 h): 0.6%
- Decomposition efficiency of glycitin family in concentrated soybean protein (pH5.1, heat treatment of enzyme: no, reaction time 3 h): 0.6%
- Decomposition efficiency of glycitin family in concentrated soybean protein (pH5.1, heat treatment of enzyme: no, reaction time 6 h): 0.6%
- Decomposition efficiency of glycitin family in concentrated soybean protein (pH5.1, heat treatment of enzyme: yes, reaction time 6 h): 0.4%
- Decomposition efficiency of glycitin family in defatted soybean (pH5.4, heat treatment of enzyme: no, reaction time 0 h): 64.0%
- Decomposition efficiency of glycitin family in defatted soybean (pH5.4, heat treatment of enzyme: no, reaction time 1 h): 45.1%
- Decomposition efficiency of glycitin family in defatted soybean (pH5.4, heat treatment of enzyme: no, reaction time 3 h): 100.0%
- Decomposition efficiency of glycitin family in defatted soybean (pH5.4, heat treatment of enzyme: no, reaction time 6 h): 32.3%
- Decomposition efficiency of glycitin family in defatted soybean (pH5.4, heat treatment of enzyme: yes, reaction time 6 h): 39.3%
- Decomposition efficiency of glycitin family in soymilk (pH6.2, heat treatment of enzyme no, reaction time 0 h): 43.2
- Decomposition efficiency of glycitin family in soymilk (pH6.2, heat treatment of enzyme no, reaction time 1 h): 46.4
- Decomposition efficiency of glycitin family in soymilk (pH6.2, heat treatment of enzyme no, reaction time 3 h): 34.5
- Decomposition efficiency of glycitin family in soymilk (pH6.2, heat treatment of enzyme no, reaction time 6 h): 29.6
- Decomposition efficiency of glycitin family in soymilk (pH6.2, heat treatment of enzyme yes, reaction time 6 h): 37.6
- Decomposition efficiency of glycitin family in roasted soy flour (pH6.5, heat treatment of enzyme no, reaction time 0 h): not detected
- Decomposition efficiency of glycitin family in roasted soy flour (pH6.5, heat treatment of enzyme no, reaction time 1 h): not detected
- Decomposition efficiency of glycitin family in roasted soy flour (pH6.5, heat treatment of enzyme no, reaction time 3 h): not detected
- Decomposition efficiency of glycitin family in roasted soy flour (pH6.5, heat treatment of enzyme no, reaction time 6 h): not detected
- Decomposition efficiency of glycitin family in roasted soy flour (pH6.5, heat treatment of enzyme yes, reaction time 6 h): not detected
- Decomposition efficiency of glycitin family in concentrated soybean protein [1]: 0.4%
- Decomposition efficiency of glycitin family in defatted soybean [1]: 39.6%
- Decomposition efficiency of glycitin family in concentrated soybean protein [2]: 0.4%
- Decomposition efficiency of glycitin family in defatted soybean [2]: 52.9%
- Decomposition efficiency of glycitin family in concentrated soybean protein [3]: 0.4%
- Decomposition efficiency of glycitin family in defatted soybean [3]: 53.6%
- Decomposition efficiency of glycitin family in concentrated soybean protein [4]: 0.4%
- Decomposition efficiency of glycitin family in defatted soybean [4]: 58.1%
- Decomposition efficiency of glycitin family in concentrated soybean protein [5]: 0.4%
- Decomposition efficiency of glycitin family in defatted soybean [5]: 50.3%
- Decomposition efficiency of glycitin family in soymilk (pH7.2, heat treatment of enzyme no, reaction time 0 h): 43.9
- Decomposition efficiency of glycitin family in soymilk (pH7.2, heat treatment of enzyme no, reaction time 1 h): 48.8
- Decomposition efficiency of glycitin family in soymilk (pH7.2, heat treatment of enzyme no, reaction time 3 h): 46.2
- Decomposition efficiency of glycitin family in soymilk (pH7.2, heat treatment of enzyme no, reaction time 6 h): 41.6
- Decomposition efficiency of glycitin family in soymilk (pH7.2, heat treatment of enzyme yes, reaction time 6 h): 37.5
- Decomposition efficiency of glycitin family in defatted soybean (pH7.8, heat treatment of enzyme: no, reaction time 0 h): 66.8%
- Decomposition efficiency of glycitin family in defatted soybean (pH7.8, heat treatment of enzyme: no, reaction time 1 h): 57.5%
- Decomposition efficiency of glycitin family in defatted soybean (pH7.8, heat treatment of enzyme: no, reaction time 3 h): 53.2%
- Decomposition efficiency of glycitin family in defatted soybean (pH7.8, heat treatment of enzyme: no, reaction time 6 h): 49.1%
- Decomposition efficiency of glycitin family in defatted soybean (pH7.8, heat treatment of enzyme: yes, reaction time 6 h): 55.8%
- Decomposition efficiency of glycitin family in roasted soy flour (pH8.5, heat treatment of enzyme no, reaction time 0 h): not detected
- Decomposition efficiency of glycitin family in roasted soy flour (pH8.5, heat treatment of enzyme no, reaction time 1 h): not detected
- Decomposition efficiency of glycitin family in roasted soy flour (pH8.5, heat treatment of enzyme no, reaction time 3 h): not detected
- Decomposition efficiency of glycitin family in roasted soy flour (pH8.5, heat treatment of enzyme no, reaction time 6 h): not detected
- Decomposition efficiency of glycitin family in roasted soy flour (pH8.5, heat treatment of enzyme yes, reaction time 6 h): not detected
- Decomposition efficiency of glycitin family in concentrated soybean protein (pH8.6, heat treatment of enzyme: no, reaction time 0 h): 0.4%
- Decomposition efficiency of glycitin family in concentrated soybean protein (pH8.6, heat treatment of enzyme: no, reaction time 1 h): 0.4%
- Decomposition efficiency of glycitin family in concentrated soybean protein (pH8.6, heat treatment of enzyme: no, reaction time 3 h): 0.4%
- Decomposition efficiency of glycitin family in concentrated soybean protein (pH8.6, heat treatment of enzyme: no, reaction time 6 h): 0.4%
- Decomposition efficiency of glycitin family in concentrated soybean protein (pH8.6, heat treatment of enzyme: yes, reaction time 6 h): 0.3%
- Decomposition efficiency of glycitin family in soymilk (pH11.6, heat treatment of enzyme no, reaction time 0 h): 39.4
- Decomposition efficiency of glycitin family in soymilk (pH11.6, heat treatment of enzyme no, reaction time 1 h): 50.4
- Decomposition efficiency of glycitin family in soymilk (pH11.6, heat treatment of enzyme no, reaction time 3 h): 46.5
- Decomposition efficiency of glycitin family in soymilk (pH11.6, heat treatment of enzyme no, reaction time 6 h): 44.0
- Decomposition efficiency of glycitin family in soymilk (pH11.6, heat treatment of enzyme yes, reaction time 6 h): 34.4
Structure (SMILES): COc1cc2c(=O)c(-c3ccc(O)cc3)coc2cc1O[C@@H]1O[C@H](COC(=O)CC(=O)O)[C@@H](O)[C@H](O)[C@H]1O [malonylglycitin, 6″-O-malonylglycitin]
